# Measured values from article PMC8457910 (Bioorganic Chemistry, 2021).
# Where “and” joins values, the source holds several entries; their conditions need not be identical. Equal values may be shown once.
# Target: NusA-5HB (Severe acute respiratory syndrome coronavirus 2, UniProt P0DTC2)
# Test: Competitive FP assays of small molecules
# Type: binding, SARS-CoV-2
# Details: IC50, 8 nM NusA-5HB, 5 nM HR2P-FL, 4% DMSO
row,Compound,IC50
1,"O=C(/C=C/c1ccc(O)c(O)c1/C=C/c1ccc(O)c(O)c1)O[C@H](Cc1ccc(O)c(O)c1)C(=O)O [Sal-A, Salvianolic acid A]",3.9 µM and ~3.9 µM
2,"O=C(O)/C=C/c1ccc(O)c(O)c1 [caffeic acid, Caffeic acid]",638 µM and ~638 µM
